The values below come from patent US11129782B2, “Derivatives of PPD useful for coloring hair and skin” (National University of Singapore, priority 2017, dated 2021).

Several values for one entry are separate records, joined by “and”; a condition that tells them apart may be missing. Equal values may be shown once. Read-outs that look alike come from different tables or passages of the source.

Series [1] can be described thus: Skin permeation in vertical Franz diffusion cells. It is filed as in vitro ADME, porcine. The settings on record: 8 h; for Penetration profile PPD vs derivatives (times less than PPD): ratio of PPD penetration to that of the compound; for recovery at 8 h, 1 % w/v: pig, read-out: % Parent compound Recovery (mean). An outline of the steps:
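Dermatomed porcine ear skin (~1.0 mm, barrier checked by TEWL) in vertical Franz cells at 37 °C, 0.64 cm^2 area, PBS receptor, donor of 1% w/v solutions in argon-purged water (n=3). Receptor sampled over 8 h with mass balance, LCMS quantification; flux and permeability coefficients from steady-state Fick's law fits.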

In series [2] the test system is lysine peptide (Ac-RFAAKAA-COOH). Nature of the series: Direct Peptide Reactivity Assay, lysine peptide. Conditions: for % of Lysine depletion, Avg / % of Lysine depletion, Rep 2 / % of Lysine depletion, Rep 3 / Reactivity Class: 1:50; for % of Lysine depletion, Rep 1: peptide 0.02 mM : test chemical 1 mM (1:50); for Reactivity Class: lysine. On the procedure: (§1) The mass spectrometric analysis was performed by use of a AB SCIEX QTRAP 5500 tandem mass spectrometry (MS/MS) system (AB SCIEX, Framingham, Mass., USA) operating in triple quadrupole positive mode (ESI+) equipped with an AB Sciex Turbo Ion Spray interface. Acquisition and analysis of data were performed with Analyst software ver. 1.6.2 (Applied Biosystems).

The subject of series [3] is cysteine and lysine peptides. The experiment in a line: Direct Peptide Reactivity Assay, mean of cysteine and lysine depletion (FIG. 12).
A further series deals with IL-8. The experiment in a line: IL-8 ELISA on THP-1 cell supernatants. In kind it is cell-based, human. Conditions: preliminary ELISA, CV75. On the procedure: (§2) For cytokine profiling in THP-1, supernatants from wells were collected and then used for cytokine analysis by a Chemokine immunosorbent assay Bio-legend ELISA Max kit. The levels of available IL-8 protein from THP-1 cell supernatants was estimated using this kit which are regulated upon activation of THP-1 model. Surface receptor expression of human CD-86, CD-54, MHC-I and IL-T3 were analyzed by flow cytometry using standard BD FACS analyzer with PE and FITC fluorescent labeled antibodies from Biolegend and e Bioscience.
(§3) In order to understand the effect of modified PPD hairdyes on THP-1 immune sensitization, a certain degree of Cytotoxicity at CV75% viable where 25% cell death is required before evaluation of supernatants in THP-1 models for expression of cytokine IL-8 and receptor expression of CD86, CD54, MHC-I and IL-T3 surface receptors upon treatment with standard PPD and modified hair dye compounds. Most allergens show a specific dose-dependent alteration of CD86 and/or CD54 expression or secretion of cytokine profiles. But depending on chemical, the alteration pattern may vary.

The next series has as its system HaCaT cells. The experiment in a line: In vitro cell cytotoxicity (MTT) assay on HaCaT cells. It is filed as cell-based, human. The settings on record: for IC50: 72 h incubation, MTT. An outline of the steps:
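HaCaT keratinocytes seeded at 5×10^3/well, after 24 h exposed 72 h to test compounds serially diluted from 500 μM to 1.9 μM in 10% FBS DMEM. MTT (1 mg/ml, 4 h) read at 570 nm; viability expressed as percent of untreated control.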

Series [4] deals with cysteine peptide (Ac-RFAACAA-COOH). The experiment in a line: Direct Peptide Reactivity Assay, cysteine peptide. The settings on record: for % of Cysteine depletion, Avg / % of Cysteine depletion, Rep 2 / % of Cysteine depletion, Rep 3 / Reactivity Class: 1:10; for % of Cysteine depletion, Rep 1: peptide 0.02 mM : test chemical 0.2 mM (1:10); for Reactivity Class: cysteine. How it is done: For cysteine DPRA, an additional step was performed.
as §1

Series [5] can be described thus: Solubility observed when preparing dyes. In kind it is physicochemical. Conditions: water / organic solvents.
In another series the test system is ILT3. The experiment in a line: ILT3 surface expression on THP-1 by flow cytometry. The settings on record: in comparison to DCNB. In kind it is cell-based, human. On the procedure:
as §2, §3

Another series has as its system CD54. The experiment in a line: CD54 surface expression on THP-1 by flow cytometry. In kind it is cell-based, human. How it is done: as §2, §3
A general note: Flow cytometry measures light scatter and fluorescence of single cells or particles in a stream.

A further series relates to CD86. Nature of the series: CD86 surface expression on THP-1 by flow cytometry. It is filed as cell-based, human. On the procedure:
as §2, §3

In series [6] the test system is cysteine and lysine peptides.

Consider `Nc1ccc(Nc2ccc(N)cc2)cc1` [PPD derivative 1, 4,4′-Diaminodiphenylamine], for which, in [1] (1% W/V applied), the “% Parent compound Penetrated (mean)” value came to 0.00314%, the “% Parent compound Recovery (mean)” value was determined as 93.85% and the “% converted to metabolite (mean)” value was determined as 0.0104%. In addition, the “Penetration profile PPD vs derivatives (times less than PPD)” value (“Penetration profile PPD vs derivatives” below) in series [1] (listed as PPD 1) was 51 and 51.6. Moreover, in series [2] (20 min), the “% of Lysine depletion, Avg” value was 7.79%; the “% of Lysine depletion, Rep 2” value is 6.48%; the “% of Lysine depletion, Rep 3” value is on record as 9.01%; the “% of Lysine depletion, Rep 1” value is listed as 7.89%. Also, the “Reactivity Class” value in series [2] (20 min) is on record as “Low”. Further, in series [2] (24 h), the “% of Lysine depletion, Avg” value is listed as 23.8%; the “% of Lysine depletion, Rep 2” value is 28%; the “% of Lysine depletion, Rep 3” value is 22.3%; the “% of Lysine depletion, Rep 1” value was determined as 21%. Also, the “Reactivity Class” value in series [2] (24 h) is recorded as “Moderate”. Moreover, the “Sensitizing potential predicted from mean peptide depletion” value (from here on “Sensitizing potential predicted”) in series [3] (cysteine 1:10 / lysine 1:50 model) is given as “high sensitizing agents”. For the same compound, in the series on IL-8, the IL-8 expression entry is reported as “increased expression”. In the series with HaCaT cells, the “Fold increase in IC50 compared to PPD” value is given as approximately 2 fold and half-maximal inhibition (IC50) was put at 49.3 µM. Further, in series [4] (20 min), the “% of Cysteine depletion, Avg” value is given as 41.5%; the “% of Cysteine depletion, Rep 2” value came to 40.5%; the “% of Cysteine depletion, Rep 3” value worked out at 41.5%; the “% of Cysteine depletion, Rep 1” value is recorded as 42.6%. Moreover, the “Reactivity Class” value in [4] (20 min) was “Moderate”. Further, in series [4] (24 h), the “% of Cysteine depletion, Avg” value worked out at 69.4%; the “% of Cysteine depletion, Rep 2” value came to 69.6%; the “% of Cysteine depletion, Rep 3” value worked out at 69.3%; the “% of Cysteine depletion, Rep 1” value came out at 69.5%. In addition, the “Reactivity Class” value in series [4] (24 h) was “High”. In addition, the “Solubility (in words)” value in series [5] is given as “showed solubility in a mixture of 10% methanol in water”.
For `CCCCCCOC(=O)c1cc(Nc2ccc(N)cc2)ccc1N` [PPD derivative 6, hexyl 2-amino-5-((4-aminophenyl)amino)benzoate], in [1] (1% W/V applied), the “% Parent compound Penetrated (mean)” value was 0.00015%; the “% converted to metabolite (mean)” value is given as 0.01%; the recovery at 8 h, 1 % w/v stood at 95.4%. In series [1], the “Permeation less than PPD” value is listed as “about 2 order of magnitude” and the “Penetration profile PPD vs derivatives” value is listed as 1080. Also, the IL-8 expression result in the series on IL-8 is “do not stimulate IL-8 expression”. Further, the “ILT3 (inhibitory receptor) expression” value in the series with ILT3 is reported as “increased”. Also, the “Expression of CD54” value in the series on CD54 is “not stimulated”. Besides, in the series on HaCaT cells (Homo sapiens, HaCaT, 72 h), the IC50 was 10.5 µM. In the series with CD86, the “Expression of CD86” value is recorded as “not stimulated”.
For `Nc1ccc(Nc2ccc(Nc3ccc(Nc4ccc(N)cc4)cc3)cc2)cc1` [PPD derivative 8, 4,4′-Bis[(4-aminophenyl)amino]diphenylamine], the “Sensitizing potential predicted” value in series [6] was “high sensitizing agents”. Further, in the series with IL-8, the IL-8 expression entry is recorded as “increased expression”. In addition, in the series with HaCaT cells, half-maximal inhibition (IC50) required 6.92 µM.
For the compound `Cc1ccc(NCc2ccc(-c3ccc(Nc4ccc(N)cc4)cc3)cc2)cc1` [PPD derivative 9, 4-Amino-4′-[(4-tolylaminomethyl)phenyl]diphenylamine], the “Sensitizing potential predicted” value in series [6] is given as “weak sensitizer”. In series [3] (mean of cysteine (1:10) and lysine (1:50), FIG. 12), this compound returned a Mean peptide depletion of 17.9%. For the same compound, in the series with HaCaT cells, it took 6.8 µM to reach half-maximal inhibition (IC50).
On to `CCCCCCOC(=O)c1cc(N)ccc1N` [PPD derivative 15, Hexyl-2,5-diaminobenzoate], for which, in series [1] (1% W/V applied), the “% Parent compound Penetrated (mean)” value amounted to 0.0001%; the “% converted to metabolite (mean)” value is 0.0108%; the recovery at 8 h, 1 % w/v amounted to 96.7%. In addition, in series [1], the “Permeation less than PPD” value is “about 2 order of magnitude” and the “Penetration profile PPD vs derivatives” value came to 1620. Besides, the IL-8 expression result in the series with IL-8 is listed as “do not stimulate IL-8 expression”. The “ILT3 (inhibitory receptor) expression” value in the series on ILT3 is “increased”. Moreover, the “Expression of CD54” value with CD54 is “not stimulated”. The “Improvement of cell viability in comparison to PPD 4” value in the series with HaCaT cells is on record as “about 5 times”. The IC50 in the series on HaCaT cells (Homo sapiens, HaCaT, 72 h) is 160 µM. For the same compound, the “Expression of CD86” value in the series with CD86 was “not stimulated”.

As a reminder, the IC50 is the concentration that gives 50% inhibition. Lower therefore signals higher potency.
